We go through 4 molecules from article PMC8550792, “Evolution of kinase polypharmacology across HSP90 drug discovery” (Cell Chemical Biology, 2021).

Common to all, as to experiment: biochemical
Type in all cases: biochemical

In assay [1] the target is T1, 382 unique human kinases (Homo sapiens, UniProt P36897).
T1 construct: purchased Reaction Biology (HotSpot contract assay)
T1 sequence (P36897 34-503): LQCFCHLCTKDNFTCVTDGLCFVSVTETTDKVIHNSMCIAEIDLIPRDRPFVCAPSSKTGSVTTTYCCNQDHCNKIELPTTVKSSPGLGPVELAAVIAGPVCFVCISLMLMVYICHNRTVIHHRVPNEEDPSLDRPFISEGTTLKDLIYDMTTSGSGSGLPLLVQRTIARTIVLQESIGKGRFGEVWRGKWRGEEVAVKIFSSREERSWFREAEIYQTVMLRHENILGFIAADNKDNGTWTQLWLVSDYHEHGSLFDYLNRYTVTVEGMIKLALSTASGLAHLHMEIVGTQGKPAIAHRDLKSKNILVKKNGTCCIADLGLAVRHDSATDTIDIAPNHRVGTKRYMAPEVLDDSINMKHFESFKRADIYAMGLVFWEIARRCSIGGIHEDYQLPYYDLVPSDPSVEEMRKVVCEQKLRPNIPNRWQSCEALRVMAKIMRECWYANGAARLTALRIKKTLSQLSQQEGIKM
The settings on record: kinase ALK5/TGFBR1, compound 10 uM; for remaining activity at 10 µM: read-out: % Enzyme Activity (relative to DMSO controls).

For assay [2], the target named is T2, 382 unique human kinases (Homo sapiens, UniProt P43403, Y319F).
T2 construct: purchased Reaction Biology (HotSpot contract assay)
T2 sequence (P43403 1-619 Y319F): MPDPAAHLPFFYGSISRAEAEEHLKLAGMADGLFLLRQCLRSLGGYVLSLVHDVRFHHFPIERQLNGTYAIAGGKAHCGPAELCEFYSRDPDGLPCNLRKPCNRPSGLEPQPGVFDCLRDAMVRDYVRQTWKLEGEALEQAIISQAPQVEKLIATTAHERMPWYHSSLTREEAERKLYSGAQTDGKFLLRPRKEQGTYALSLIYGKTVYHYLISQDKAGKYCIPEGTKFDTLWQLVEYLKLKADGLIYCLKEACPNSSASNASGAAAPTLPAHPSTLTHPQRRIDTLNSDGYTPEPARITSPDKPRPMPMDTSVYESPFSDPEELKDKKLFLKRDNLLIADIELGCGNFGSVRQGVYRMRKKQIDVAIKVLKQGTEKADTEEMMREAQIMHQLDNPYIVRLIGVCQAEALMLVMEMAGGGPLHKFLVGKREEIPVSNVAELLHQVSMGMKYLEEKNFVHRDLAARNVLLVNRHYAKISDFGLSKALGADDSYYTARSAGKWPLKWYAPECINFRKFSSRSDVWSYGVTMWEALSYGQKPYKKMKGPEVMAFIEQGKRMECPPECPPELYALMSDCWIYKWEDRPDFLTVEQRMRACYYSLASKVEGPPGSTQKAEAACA
The settings on record: ZAP70 (Y319F), 10 uM; for remaining activity at 10 µM: read-out: % Enzyme Activity (relative to DMSO controls).

The target of assay [3] is T3, 382 unique human kinases (Homo sapiens, UniProt Q02763, P883A).
T3 construct: purchased Reaction Biology (HotSpot contract assay)
The settings on record: TIE2 (P883A), 10 uM; for remaining activity at 10 µM: read-out: % Enzyme Activity (relative to DMSO controls).

Assay [4] addresses T4, 382 unique human kinases (Homo sapiens, UniProt Q9H4A3).
T4 construct: purchased Reaction Biology (HotSpot contract assay)
As to conditions: WNK1, 10 uM; for remaining activity at 10 µM: read-out: % Enzyme Activity (relative to DMSO controls).

Assay [5] has as its target T5, 382 unique human kinases (Homo sapiens, UniProt Q8NE63).
T5 construct: purchased Reaction Biology (HotSpot contract assay)
T5 sequence (Q8NE63 1-616): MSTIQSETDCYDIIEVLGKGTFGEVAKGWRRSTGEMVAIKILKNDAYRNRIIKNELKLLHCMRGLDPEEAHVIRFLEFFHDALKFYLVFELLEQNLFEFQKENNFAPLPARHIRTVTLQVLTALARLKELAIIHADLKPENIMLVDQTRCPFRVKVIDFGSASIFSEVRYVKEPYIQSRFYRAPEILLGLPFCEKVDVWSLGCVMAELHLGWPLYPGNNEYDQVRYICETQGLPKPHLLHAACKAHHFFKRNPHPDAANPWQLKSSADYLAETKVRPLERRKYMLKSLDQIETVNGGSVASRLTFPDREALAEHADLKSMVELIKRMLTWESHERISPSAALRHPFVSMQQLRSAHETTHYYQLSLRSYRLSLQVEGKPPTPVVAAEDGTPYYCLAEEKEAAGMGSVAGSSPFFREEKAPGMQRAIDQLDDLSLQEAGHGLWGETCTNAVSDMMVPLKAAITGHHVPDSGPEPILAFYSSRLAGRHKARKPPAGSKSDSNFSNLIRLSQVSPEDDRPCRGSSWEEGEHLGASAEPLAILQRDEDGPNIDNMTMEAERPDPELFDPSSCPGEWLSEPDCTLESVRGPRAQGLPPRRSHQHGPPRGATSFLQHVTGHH
The settings on record: HIPK4, 10 uM; for remaining activity at 10 µM: read-out: % Enzyme Activity (relative to DMSO controls).

For assay [6], the target named is T6, 382 unique human kinases (Homo sapiens, UniProt P09769).
T6 construct: purchased Reaction Biology (HotSpot contract assay)
The settings on record: FGR, [ATP] 50 µM.

Assay [7] concerns the target T7, 382 unique human kinases (Homo sapiens, UniProt P00519, Y253H).
T7 construct: purchased Reaction Biology (HotSpot contract assay)
As to conditions: ABL1 (Y253H), [ATP] 10 µM, compound 10 uM; for remaining activity at 10 µM: read-out: % Enzyme Activity (relative to DMSO controls).

The mark [8] stands for this setting: compound 10 uM, read-out: % Enzyme Activity (relative to DMSO controls).

T4 sequence (Q9H4A3 whole entry): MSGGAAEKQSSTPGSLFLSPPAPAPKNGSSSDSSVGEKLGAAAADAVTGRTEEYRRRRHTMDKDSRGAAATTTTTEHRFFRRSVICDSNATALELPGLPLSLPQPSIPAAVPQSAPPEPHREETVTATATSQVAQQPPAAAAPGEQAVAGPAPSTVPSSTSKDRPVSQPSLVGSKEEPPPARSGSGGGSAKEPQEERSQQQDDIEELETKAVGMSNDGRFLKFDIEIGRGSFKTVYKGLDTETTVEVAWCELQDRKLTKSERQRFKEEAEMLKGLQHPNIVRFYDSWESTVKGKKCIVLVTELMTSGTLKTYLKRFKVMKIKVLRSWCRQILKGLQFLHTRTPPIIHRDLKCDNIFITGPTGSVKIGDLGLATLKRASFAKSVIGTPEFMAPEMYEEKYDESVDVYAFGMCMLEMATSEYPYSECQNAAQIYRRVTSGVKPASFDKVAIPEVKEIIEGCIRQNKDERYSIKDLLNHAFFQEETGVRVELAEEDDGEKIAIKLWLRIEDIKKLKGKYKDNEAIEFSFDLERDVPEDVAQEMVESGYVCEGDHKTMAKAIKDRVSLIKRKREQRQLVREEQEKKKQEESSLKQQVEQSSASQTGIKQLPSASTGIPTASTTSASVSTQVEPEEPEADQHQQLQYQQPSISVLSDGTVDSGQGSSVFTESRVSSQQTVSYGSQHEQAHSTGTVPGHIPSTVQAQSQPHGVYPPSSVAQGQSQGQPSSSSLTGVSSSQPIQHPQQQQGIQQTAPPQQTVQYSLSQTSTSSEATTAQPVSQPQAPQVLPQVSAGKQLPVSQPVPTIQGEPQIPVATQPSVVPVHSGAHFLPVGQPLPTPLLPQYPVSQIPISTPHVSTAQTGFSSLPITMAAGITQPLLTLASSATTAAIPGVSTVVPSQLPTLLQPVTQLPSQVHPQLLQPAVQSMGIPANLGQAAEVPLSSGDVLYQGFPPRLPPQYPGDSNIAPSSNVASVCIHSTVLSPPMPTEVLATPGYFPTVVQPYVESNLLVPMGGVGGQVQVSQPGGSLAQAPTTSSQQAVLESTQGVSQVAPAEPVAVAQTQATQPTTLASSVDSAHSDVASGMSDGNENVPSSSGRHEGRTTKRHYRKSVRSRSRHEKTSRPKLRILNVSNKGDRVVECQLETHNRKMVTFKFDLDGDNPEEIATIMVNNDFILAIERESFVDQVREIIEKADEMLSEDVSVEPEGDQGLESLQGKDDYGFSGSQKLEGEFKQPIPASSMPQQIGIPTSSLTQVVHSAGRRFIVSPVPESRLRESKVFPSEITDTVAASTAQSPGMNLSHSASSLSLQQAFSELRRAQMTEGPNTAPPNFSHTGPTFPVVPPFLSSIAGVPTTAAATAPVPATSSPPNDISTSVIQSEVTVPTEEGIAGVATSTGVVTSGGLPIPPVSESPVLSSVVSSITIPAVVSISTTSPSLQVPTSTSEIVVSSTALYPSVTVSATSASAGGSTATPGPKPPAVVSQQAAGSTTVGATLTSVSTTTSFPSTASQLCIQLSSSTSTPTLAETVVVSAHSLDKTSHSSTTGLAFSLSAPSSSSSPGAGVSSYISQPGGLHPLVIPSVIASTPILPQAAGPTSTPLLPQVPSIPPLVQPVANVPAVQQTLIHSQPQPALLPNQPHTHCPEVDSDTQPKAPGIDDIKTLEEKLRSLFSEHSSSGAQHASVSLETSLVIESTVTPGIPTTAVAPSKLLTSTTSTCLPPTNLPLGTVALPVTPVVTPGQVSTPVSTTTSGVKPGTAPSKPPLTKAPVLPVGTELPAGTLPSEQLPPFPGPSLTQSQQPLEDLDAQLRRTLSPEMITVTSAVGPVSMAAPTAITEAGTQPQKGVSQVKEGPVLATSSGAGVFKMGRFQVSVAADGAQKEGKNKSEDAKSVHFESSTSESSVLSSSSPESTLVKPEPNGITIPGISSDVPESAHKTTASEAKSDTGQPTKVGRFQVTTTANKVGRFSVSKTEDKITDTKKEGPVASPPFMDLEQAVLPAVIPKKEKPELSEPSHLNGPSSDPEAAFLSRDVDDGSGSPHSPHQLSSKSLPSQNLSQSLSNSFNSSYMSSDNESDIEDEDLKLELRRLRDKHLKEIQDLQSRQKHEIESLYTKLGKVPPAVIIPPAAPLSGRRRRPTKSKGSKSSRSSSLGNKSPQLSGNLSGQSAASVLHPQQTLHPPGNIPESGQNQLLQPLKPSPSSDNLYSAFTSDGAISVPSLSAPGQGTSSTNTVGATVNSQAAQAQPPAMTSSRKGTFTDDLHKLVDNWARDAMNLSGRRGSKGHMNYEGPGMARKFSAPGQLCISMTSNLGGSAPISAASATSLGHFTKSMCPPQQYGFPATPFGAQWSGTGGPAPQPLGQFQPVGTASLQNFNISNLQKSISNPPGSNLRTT
T7 sequence (P00519 whole entry Y253H): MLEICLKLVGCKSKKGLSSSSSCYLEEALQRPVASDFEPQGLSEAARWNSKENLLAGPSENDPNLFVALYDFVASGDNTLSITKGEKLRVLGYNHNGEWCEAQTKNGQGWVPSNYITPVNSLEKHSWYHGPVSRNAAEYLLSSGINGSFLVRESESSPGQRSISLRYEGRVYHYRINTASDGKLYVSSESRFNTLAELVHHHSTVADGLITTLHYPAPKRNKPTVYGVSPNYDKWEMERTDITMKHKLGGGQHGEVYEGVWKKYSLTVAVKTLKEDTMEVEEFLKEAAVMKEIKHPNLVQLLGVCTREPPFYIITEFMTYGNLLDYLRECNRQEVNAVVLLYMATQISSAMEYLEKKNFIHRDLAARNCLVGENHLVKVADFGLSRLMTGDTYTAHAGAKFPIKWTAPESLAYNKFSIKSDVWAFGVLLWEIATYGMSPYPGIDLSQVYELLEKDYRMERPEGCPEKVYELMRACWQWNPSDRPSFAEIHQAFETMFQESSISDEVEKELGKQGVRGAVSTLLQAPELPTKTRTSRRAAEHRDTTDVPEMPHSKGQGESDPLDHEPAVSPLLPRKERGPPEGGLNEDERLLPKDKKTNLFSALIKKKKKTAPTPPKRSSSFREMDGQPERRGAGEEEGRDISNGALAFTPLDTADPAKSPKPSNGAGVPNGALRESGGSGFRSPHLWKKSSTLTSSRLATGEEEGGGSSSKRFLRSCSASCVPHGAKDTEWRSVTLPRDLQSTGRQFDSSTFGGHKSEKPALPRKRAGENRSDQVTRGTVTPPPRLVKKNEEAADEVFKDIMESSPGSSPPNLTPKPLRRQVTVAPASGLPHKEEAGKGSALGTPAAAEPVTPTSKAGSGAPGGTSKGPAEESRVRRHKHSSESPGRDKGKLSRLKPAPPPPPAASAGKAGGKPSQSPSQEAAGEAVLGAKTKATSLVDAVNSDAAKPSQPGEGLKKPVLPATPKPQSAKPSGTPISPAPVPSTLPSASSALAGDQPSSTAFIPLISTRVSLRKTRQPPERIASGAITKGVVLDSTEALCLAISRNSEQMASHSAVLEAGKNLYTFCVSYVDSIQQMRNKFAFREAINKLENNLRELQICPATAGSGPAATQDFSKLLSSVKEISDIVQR
T6 sequence (P09769 whole entry): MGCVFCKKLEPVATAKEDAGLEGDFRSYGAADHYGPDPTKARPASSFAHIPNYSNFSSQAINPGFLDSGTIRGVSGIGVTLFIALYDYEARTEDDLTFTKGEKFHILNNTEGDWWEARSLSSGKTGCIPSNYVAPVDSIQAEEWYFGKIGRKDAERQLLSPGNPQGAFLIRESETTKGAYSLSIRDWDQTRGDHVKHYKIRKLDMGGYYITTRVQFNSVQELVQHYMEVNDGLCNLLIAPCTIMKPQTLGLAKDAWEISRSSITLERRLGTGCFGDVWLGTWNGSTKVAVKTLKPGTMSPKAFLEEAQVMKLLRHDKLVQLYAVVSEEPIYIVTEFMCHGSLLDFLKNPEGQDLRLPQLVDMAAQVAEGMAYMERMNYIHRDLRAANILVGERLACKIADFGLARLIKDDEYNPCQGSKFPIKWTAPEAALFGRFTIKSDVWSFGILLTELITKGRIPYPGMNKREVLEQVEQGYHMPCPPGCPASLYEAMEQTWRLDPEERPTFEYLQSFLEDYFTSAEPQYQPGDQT
T3 sequence (Q02763 23-1124 P883A): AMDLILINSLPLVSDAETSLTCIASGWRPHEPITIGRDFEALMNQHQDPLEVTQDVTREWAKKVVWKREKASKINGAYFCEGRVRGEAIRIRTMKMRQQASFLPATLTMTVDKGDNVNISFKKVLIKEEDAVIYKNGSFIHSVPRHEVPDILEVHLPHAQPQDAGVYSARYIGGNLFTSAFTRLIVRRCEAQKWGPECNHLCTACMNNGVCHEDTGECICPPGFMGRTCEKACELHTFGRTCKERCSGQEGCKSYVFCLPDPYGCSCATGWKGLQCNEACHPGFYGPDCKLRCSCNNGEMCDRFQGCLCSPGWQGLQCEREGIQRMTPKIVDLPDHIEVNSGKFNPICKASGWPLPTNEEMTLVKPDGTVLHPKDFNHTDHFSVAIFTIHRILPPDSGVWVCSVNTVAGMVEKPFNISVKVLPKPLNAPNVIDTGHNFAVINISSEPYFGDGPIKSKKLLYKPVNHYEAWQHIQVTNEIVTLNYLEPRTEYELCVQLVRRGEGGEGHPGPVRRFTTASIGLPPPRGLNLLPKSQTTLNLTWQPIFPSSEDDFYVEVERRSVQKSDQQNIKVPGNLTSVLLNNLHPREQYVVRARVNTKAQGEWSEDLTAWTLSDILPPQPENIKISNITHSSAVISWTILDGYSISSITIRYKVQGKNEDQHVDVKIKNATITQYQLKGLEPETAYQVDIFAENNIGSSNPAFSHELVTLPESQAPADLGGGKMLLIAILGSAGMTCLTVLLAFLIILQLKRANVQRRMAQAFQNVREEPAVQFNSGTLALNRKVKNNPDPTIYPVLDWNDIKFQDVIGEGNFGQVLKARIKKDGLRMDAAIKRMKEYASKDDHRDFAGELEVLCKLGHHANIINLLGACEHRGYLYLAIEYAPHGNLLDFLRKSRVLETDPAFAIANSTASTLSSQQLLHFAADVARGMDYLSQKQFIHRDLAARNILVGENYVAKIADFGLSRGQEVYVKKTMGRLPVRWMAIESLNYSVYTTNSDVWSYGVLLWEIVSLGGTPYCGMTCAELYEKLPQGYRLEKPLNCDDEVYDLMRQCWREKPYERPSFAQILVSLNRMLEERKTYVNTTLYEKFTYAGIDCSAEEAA

As for `CC(C)c1cc(-c2n[nH]c(=O)n2-c2ccc3c(ccn3C)c2)c(O)cc1O` [Ganetespib (STA9090)], the remaining activity at 10 µM was 90.1% at 382 unique human kinases [1]; 88.4% on 382 unique human kinases [2]; 74.5% on 382 unique human kinases [3]; 94.2% on 382 unique human kinases [4]; 64.4% at 382 unique human kinases [5].
As for `CC(C)c1cc(-c2n[nH]c(=O)n2-c2ccc3c(ccn3C)c2)c(O)cc1O` [Ganetespib], the remaining activity at 1 µM on 382 unique human kinases [6] (compound 1 uM, read-out: % Enzyme Activity (relative to DMSO controls)) came out at 47.5%. In addition, the values for the remaining activity at 10 µM on 382 unique human kinases [6] (setting [8]) and at 382 unique human kinases [7] were 14.4% and 9.65%, respectively.
On to `CCNC(=O)c1noc(-c2cc(C(C)C)c(O)cc2O)c1-c1ccc(CN2CCOCC2)cc1` [Luminespib (AUY-922)], for which the “% Enzyme Activity (relative to DMSO controls)” value is 93.53% at 382 unique human kinases [1]; 63.89% at 382 unique human kinases [2]; 100.72% on 382 unique human kinases [3]; 68.64% on 382 unique human kinases [4]; 88.32% at 382 unique human kinases [5]. Besides, the remaining activity at 10 µM on 382 unique human kinases [1] was 94.7%; on 382 unique human kinases [2] it was 68.9%; at 382 unique human kinases [3], 104%; on 382 unique human kinases [4], 70.4%; at 382 unique human kinases [5], 88.8%.
As to `CCNC(=O)c1noc(-c2cc(C(C)C)c(O)cc2O)c1-c1ccc(CN2CCOCC2)cc1` [Luminespib], the “% Enzyme Activity (relative to DMSO controls)” value at 382 unique human kinases [6] (compound 10 uM) came to 33.14%; on 382 unique human kinases [7] it was 6.34%. In addition, the remaining activity at 10 µM at 382 unique human kinases [6] (setting [8]) was 34.1%; on 382 unique human kinases [7], 6.94%.
